Measured values taken from patent US20150297579A1, “TREATMENT OF CANCER WITH POMALIDOMIDE IN A RENALLY IMPAIRED SUBJECT” (priority 2012, published 2015).

Tested on: patients with relapsed/refractory multiple myeloma (RRMM)
Assay: POM+LoDEX vs. HiDEX in RRMM: analysis of patients with moderate renal impairment
Type: in vivo, human
Protocol: Randomization was 2:1 to POM 4 mg (Day 1 to Day 21)+DEX 40 mg (20 mg for patients aged >75 y) qw; or DEX 40 mg (20 mg for patients aged >75 y) (Day 1-Day 4, Day 9-Day 12, and Day 17-Day 20) in a 28-D cycle. Treatment continued until PD or unacceptable adverse event (AE). The primary endpoint was progression-free survival (PFS). Secondary endpoints included overall survival (OS) and AEs. This analysis examined patients with or without moderate RI (CrCl<60 vs.≧60 mL/min).

With `C[C@@H]1C[C@H]2[C@@H]3CCC4=CC(=O)C=C[C@]4(C)[C@@]3(F)[C@@H](O)C[C@]2(C)[C@@]1(O)C(=O)CO` [HiDEX, (8S,9R,10S,11S,13S,14S,16R,17R)-9-fluoro-11,17-dihydroxy-17-(2-hydroxyacetyl)-10,13,16-trimethyl-6,7,8,9,10,11,12,13,14,15,16,17-dodecahydro-3H-cyclopenta[a]phenanthren-3-one] the “Median OS (mo)” value (CrCl <60 mL/min (moderate RI)) was 4.6 mo, the “Median PFS (mo)” value (CrCl <60 mL/min (moderate RI)) was 1.6 mo and the “Median OS (mo)” value (CrCl ≧60 mL/min) was 9.2 mo. The “Median PFS (mo)” value (CrCl ≧60 mL/min) was 1.8 mo, the “Discontinuation due to AE” value (moderate RI) was 5% and the “Gr 3/4 AE: anemia” value (moderate RI) was 34%. For the same compound, the “Gr 3/4 AE: infection” value (moderate RI) was 24%, the “Gr 3/4 AE: neutropenia” value (moderate RI) was 15% and the “Discontinuation due to AE” value (no moderate RI) was 7%. For the same compound, the “Gr 3/4 AE: anemia” value (normal renal function) was 26%, the “Gr 3/4 AE: infection” value (normal renal function) was 23% and the “Gr 3/4 AE: neutropenia” value (normal renal function) was 15%.
